Laboratory results from the NIST ThermoML archive (doi:10.1021/acs.jced.6b00362).

What was measured:
[1] = refractive index (other wavelength) (dimensionless); xn = mol fraction of the nth substance listed; settings: Liquid, Wavelength=632.8 nm, ellipsometry
[2] = refractive index (other wavelength) (dimensionless); settings: 101 kPa, Liquid, Wavelength=632.8 nm, ellipsometry
[3] = Crystal; DTA

[Cl-].[Cl-].[Cl-].[Gd+3] [gadolinium(III) chloride] + [Cl-].[Na+]
refractive index, [1], 100 kPa
Settings | 923 K | 973 K | 1023 K | 1073 K | 1123 K | 1173 K
x1 = 0.25 | 1.525 | 1.518 | 1.512 | 1.505 | 1.496 | 1.488
x1 = 0.5 | 1.586 | 1.58 | 1.57 | 1.562 | 1.55 | 1.544
x1 = 0.75 | 1.643 | 1.64 | 1.638 | 1.627 | 1.62 | 1.616
x1 = 1 | 1.7 | 1.685 | 1.68 | 1.675 | 1.664 | 1.662

[Cl-].[K+] [potassium chloride] + [Cl][Ce]([Cl])[Cl]
[1], 100 kPa, x2 = 0
Settings | refractive index
1073 K | 1.393
1093 K | 1.39
1103 K | 1.388
1113 K | 1.386
1123 K | 1.385
1133 K | 1.383
1153 K | 1.38
1173 K | 1.377
1193 K | 1.374

[Cl-].[Na+] [sodium chloride] + [Cl][Ce]([Cl])[Cl]
[1], 101 kPa, x2 = 0
Settings | refractive index
1083 K | 1.41
1093 K | 1.408
1103 K | 1.407
1113 K | 1.406
1123 K | 1.405
1133 K | 1.404
1153 K | 1.402
1173 K | 1.399

[Cl-].[Cs+] [cesium chloride]
[2]
Settings | refractive index
1023 K | 1.439
1033 K | 1.438
1053 K | 1.434
1073 K | 1.43
1093 K | 1.426
1113 K | 1.423
1133 K | 1.419
1153 K | 1.415
1173 K | 1.411

[Cl][Sm]([Cl])[Cl] [samarium chloride]
Settings | Normal melting temperature [°C]
[3] | 678

[2]
Settings | refractive index
973 K | 1.712
1003 K | 1.705
1023 K | 1.701
1073 K | 1.691
1103 K | 1.684
1123 K | 1.68
1153 K | 1.674
1173 K | 1.672

[Cl][Ce]([Cl])[Cl] [cerium trichloride]
Settings | Normal melting temperature [°C]
[3] | 822

[2]
Settings | refractive index
1103 K | 1.697
1133 K | 1.691
1153 K | 1.688
1173 K | 1.685
1193 K | 1.681
1213 K | 1.678
1233 K | 1.674

[Cl][Ce]([Cl])[Cl] [cerium trichloride] + [Cl-].[K+]
refractive index, [1], 100 kPa
Settings | 1073 K | 1103 K | 1123 K | 1133 K | 1153 K | 1173 K | 1193 K | 1203 K | 1213 K | 1233 K
x1 = 0.25 | 1.478 | 1.475 | 1.471 | – | 1.466 | 1.463 | 1.46 | – | – | –
x1 = 0.5 | 1.56 | 1.554 | 1.552 | – | 1.548 | 1.544 | – | 1.54 | – | –
x1 = 0.75 | 1.591 | 1.586 | 1.583 | – | 1.582 | 1.575 | – | – | – | –
x1 = 1 | – | 1.697 | – | 1.691 | 1.688 | 1.685 | 1.681 | – | 1.678 | 1.674
